This is an account of results in ChEMBL document CHEMBL1862790, “Optimisation of fenarimol series for the treatment of Chagas disease”.

Some results are limits rather than exact numbers.

For series [1], the system named is Trypanosoma cruzi. The series can be described thus: microbe, parasite or virus in culture. Type of series: functional, organism-based, Tulahuen LacZ, Clone C4. As to conditions: Trypanosoma cruzi, Tulahuen LacZ, Clone C4.
Series [2] in a line: DNDI: Cytotoxicity against L-6 rat myoblasts from skeletal muscle cells. As to conditions: L6 rat skeletal muscle myoblast cells.
Series [3] has as its system Trypanosoma cruzi. The series can be described thus: microbe, parasite or virus in culture. Type of series: functional, Tulahuen LacZ, Clone C4. As to conditions: Trypanosoma cruzi, Tulahuen LacZ, Clone C4.

Turning to `Fc1cc(Cl)ccc1C(NC1CCN(c2ccc(F)c(C(F)(F)F)c2)CC1)c1cccnc1` (centres undefined), the values for the IC50 (in the series with Trypanosoma cruzi [1]; in series [2] (IC50)) were 25.6 nM and 58600 nM, respectively. This compound also displayed an IC90 in the series with Trypanosoma cruzi [3] of 64 nM.
For `COc1cncc(N2CCC(NC(c3ccc(Cl)cc3)c3cccnc3)CC2)c1` (centres undefined) the same measures were 42 nM, 58900 nM and 96 nM.
The like results for `Cn1cc(CN2CCC(NC(c3ccc(Cl)cc3)c3cccnc3)CC2)c(C(F)(F)F)n1` (centres undefined) were, in that order, 52 nM, 51300 nM and 85 nM.
Regarding `Fc1cc(Cl)ccc1N1CCC(NC(c2ccc(Cl)cc2)c2cccnc2)CC1` (centres undefined), the IC50 in the series on Trypanosoma cruzi [1] is 19.8 nM; in series [2] (IC50), 56700 nM. The compound further showed an IC90 with Trypanosoma cruzi [3] of 35 nM.
The like results for `Fc1ccccc1OC1CCN(C(c2ccc(C(F)(F)F)cc2)c2cccnc2)CC1` (centres undefined) were, in that order, 62 nM, 67800 nM and above 90 nM.
The like results for `CCn1cc(C(NC2CCN(c3ccc(C(F)(F)F)cc3)CC2)c2cccnc2)cn1` (centres undefined) were, in that order, 53.5 nM, above 100000 nM and 92 nM.
For `Clc1ccc(C(NC2CCN(c3ccc(Br)cn3)CC2)c2cccnc2)cc1` (centres undefined) the same measures were 25.7 nM, 61800 nM and 84 nM.
In the case of `FC(F)(F)c1ccc(N(CC2CCN(c3ccc(Cl)cc3)CC2)c2cccnc2)cc1`, the IC50 was found to be 19 nM in the series on Trypanosoma cruzi [1] and 76300 nM in series [2] (IC50). In the series on Trypanosoma cruzi [3], this compound returned an IC90 of 41 nM.
For `N#Cc1ccnc(N2CCC(NC(c3ccc(Cl)cc3)c3cccnc3)CC2)n1` (centres undefined), the results for the IC50 (with Trypanosoma cruzi [1]; in series [2] (IC50)) were 60 nM and 57100 nM, respectively. Besides, in the series on Trypanosoma cruzi [3], the IC90 is 86 nM.
The like results for `CC(O)C(C)N1CCC(NC(c2ccc(Cl)cc2)c2cccnc2)CC1` (centres undefined) were, in that order, 1810 nM, above 100000 nM and 3160 nM.
For `Fc1cc(Cl)ccc1C(NC1CCN(c2ccc(OC(F)(F)F)cc2)CC1)c1cccnc1` (centres undefined), the values for the half-inhibitory concentration (IC50) (in the series on Trypanosoma cruzi [1]; in series [2] (IC50)) were 8 nM and 48000 nM, respectively. The compound also showed an IC90 in the series on Trypanosoma cruzi [3] of 24 nM.
The like results for `FC(F)(F)c1ccc(C(c2cccnc2)N2CCC(Oc3ccccc3Cl)CC2)cc1` (centres undefined) were, in that order, 41 nM, 60100 nM and 93 nM.
Turning to `CC(C)(C)OC(=O)N1CCC(CN(c2ccc(C(F)(F)F)cc2)c2cccnc2)CC1`, the IC50 with Trypanosoma cruzi [1] amounted to 28 nM; in series [2] (IC50), 51700 nM. This compound also registered an IC90 with Trypanosoma cruzi [3] of 67 nM.
`FC(F)(F)c1ccc(N2CCC(NC(c3cccnc3)c3cnn(Cc4ccccc4)c3)CC2)cc1` (centres undefined): the results for the half-inhibitory concentration (IC50) (in the series on Trypanosoma cruzi [1]; in series [2] (IC50)) were 6 nM and 51600 nM, respectively. The compound further registered an IC90 in the series on Trypanosoma cruzi [3] of 11 nM.
In the case of `O=C(c1ccccc1)N1CCC(CN(c2ccc(C(F)(F)F)cc2)c2cccnc2)CC1`, the results for the IC50 (with Trypanosoma cruzi [1]; in series [2] (IC50)) were 43 nM and 51400 nM, respectively. For the same compound, the IC90 in the series on Trypanosoma cruzi [3] was found to be 86 nM.
On to `CCn1cc(C(NC2CCN(c3ccc(F)c(F)c3)CC2)c2cccnc2)cn1` (centres undefined), for which the IC50 in the series with Trypanosoma cruzi [1] was 99 nM; in series [2] (IC50) it was 62300 nM. In the series on Trypanosoma cruzi [3], this compound had an IC90 of 328 nM.
For `CC(C)(C)N1CCC(NC(c2ccc(Cl)cc2)c2cccnc2)CC1` (centres undefined) the same measures were 3060 nM, above 100000 nM and 8660 nM.
For `Fc1ccc(N2CCC(NC(c3cccnc3)c3ccc(Cl)cc3F)CC2)cc1Cl` (centres undefined) the same measures were 28.5 nM, 54500 nM and 72 nM.
As for `CS(=O)(=O)c1ccc(N2CCC(NC(c3cccnc3)c3cnn(CC(F)(F)F)c3)CC2)cc1` (centres undefined), the IC50 with Trypanosoma cruzi [1] is 4160 nM; in series [2] (IC50) it was above 100000 nM. In the series with Trypanosoma cruzi [3], the 90% effect concentration (IC90) was above 10000 nM.
The like results for `Clc1ccc(CN2CCC(NC(c3ccc(Cl)cc3)c3cccnc3)CC2)cc1` (centres undefined) were, in that order, 66 nM, 20300 nM and 98 nM.
For `N#Cc1cc(N2CCC(NC(c3cccnc3)c3ccc(Cl)cc3F)CC2)ccc1F` (centres undefined) the same measures were 20.7 nM, 38400 nM and 47 nM.
For `FC(F)(F)c1ccc(N2CCC(NC(c3ccc(Cl)cc3)c3cccnc3)CC2)cc1` (centres undefined) the same measures were 11 nM, 53500 nM and 27.5 nM.
With `Fc1ccc(N2CCC(NC(c3cccnc3)c3ccc(Cl)cc3F)CC2)cc1F` (centres undefined), the IC50 with Trypanosoma cruzi [1] was found to be 14 nM; in series [2] (IC50), 34200 nM. Further, the concentration for an effect of 90% (IC90) in the series on Trypanosoma cruzi [3] was found to be 42 nM.
Regarding `O=S(=O)(c1ccc(C(F)(F)F)cc1)N1CCC(NC(c2cccnc2)c2ccc(Cl)cc2F)CC1` (centres undefined), the figures for the IC50 (in the series with Trypanosoma cruzi [1]; in series [2] (IC50)) were 36 nM and 18000 nM, respectively. Besides, it took 95 nM to reach the 90% level in the series with Trypanosoma cruzi [3] (IC90).
For `FC(F)(F)c1ccc(C(c2cccnc2)N2CCC(Oc3cccc(Cl)c3)CC2)cc1` (centres undefined) the same measures were 59 nM, 61200 nM and above 100 nM.
For `Cn1cc(C(NC2CCN(c3ccc(C(F)(F)F)cc3)CC2)c2cccnc2)cn1` (centres undefined) the same measures were 102 nM, above 100000 nM and 249 nM.
For `CC(C)(O)CN1CCC(NC(c2ccc(Cl)cc2)c2cccnc2)CC1` (centres undefined) the same measures were 565 nM, above 100000 nM and 1020 nM.
As for `CC(C)C(CO)N1CCC(NC(c2ccc(Cl)cc2)c2cccnc2)CC1` (centres undefined), the half-inhibitory concentration (IC50) in the series with Trypanosoma cruzi [1] is 62 nM; in series [2] (IC50), above 100000 nM. In the series with Trypanosoma cruzi [3], the IC90 is above 100 nM.
For `FC(F)(F)Cn1cc(C(NC2CCN(c3ccc(OC(F)(F)F)cc3)CC2)c2cccnc2)cn1` (centres undefined) the same measures were 65 nM, 66600 nM and above 100 nM.
As for `Fc1cc(Cl)ccc1C(NC1CCN(Cc2ccc(C(F)(F)F)cc2)CC1)c1cccnc1` (centres undefined), the IC50 turned out to be 48 nM in the series on Trypanosoma cruzi [1] and 26600 nM in series [2] (IC50). This compound registered an IC90 in the series with Trypanosoma cruzi [3] of 93 nM.
For `COc1ccc(N2CCC(NC(c3cccnc3)c3ccc(Cl)cc3F)CC2)cc1F` (centres undefined) the same measures were 7.3 nM, 47900 nM and 22 nM.
As for `Fc1ccc(N2CCC(NC(c3cccnc3)c3ccc(Cl)cc3F)CC2)c(C(F)(F)F)c1` (centres undefined), the concentration for half-maximal inhibition (IC50) in the series on Trypanosoma cruzi [1] amounted to 32 nM; in series [2] (IC50), 58900 nM. Besides, the IC90 in the series with Trypanosoma cruzi [3] worked out at 50 nM.
For `CC(=O)C(C)N1CCC(NC(c2ccc(Cl)cc2)c2cccnc2)CC1` (centres undefined) the same measures were 42.3 nM, 87700 nM and 76 nM.
The like results for `FC(F)(F)Cn1cc(C(NC2CCN(c3ccc(C(F)(F)F)cc3)CC2)c2cccnc2)cn1` (centres undefined) were, in that order, 46 nM, 71200 nM and 88 nM.
For `CC(C)(C)c1cc(N2CCC(NC(c3ccc(Cl)cc3)c3cccnc3)CC2)[nH]n1` (centres undefined) the same measures were 19 nM, 50200 nM and 47 nM.
Turning to `Fc1ccc(N2CCC(NC(c3ccc(Cl)cc3)c3cccnc3)CC2)cc1C(F)(F)F` (centres undefined), the half-inhibitory concentration (IC50) in the series on Trypanosoma cruzi [1] worked out at 24 nM; in series [2] (IC50), 52300 nM. This compound also gave an IC90 in the series with Trypanosoma cruzi [3] of 63 nM.
For `CCn1cc(C(NC2CCN(c3ccc(OC(F)(F)F)cc3)CC2)c2cccnc2)cn1` (centres undefined) the same measures were 103 nM, 73900 nM and 298 nM.
The like results for `CSc1ccc(N2CCC(NC(c3ccc(Cl)cc3)c3cccnc3)CC2)cc1` (centres undefined) were, in that order, 7 nM, 30200 nM and 19 nM.
For `Fc1cc(Cl)ccc1C(NC1CCN(Cc2ccc(Cl)cc2Cl)CC1)c1cccnc1` (centres undefined) the same measures were 39 nM, 43000 nM and 92 nM.
Take `CC(C)n1cc(C(NC2CCN(c3ccc(C(F)(F)F)cc3)CC2)c2cccnc2)cn1` (centres undefined): the IC50 worked out at 29 nM in the series with Trypanosoma cruzi [1] and 77000 nM in series [2] (IC50). This compound also came in with a concentration for an effect of 90% (IC90) in the series on Trypanosoma cruzi [3] of 81 nM.
The like results for `Fc1ccc(OC2CCN(C(c3ccc(C(F)(F)F)cc3)c3cccnc3)CC2)cc1` (centres undefined) were, in that order, 21 nM, 23800 nM and 30 nM.
Take `Fc1cnc(N2CCC(NC(c3ccc(Cl)cc3)c3cccnc3)CC2)nc1` (centres undefined): the concentration for half-maximal inhibition (IC50) turned out to be 34 nM with Trypanosoma cruzi [1] and 58200 nM in series [2] (IC50). This compound returned an IC90 in the series with Trypanosoma cruzi [3] of 88 nM.
For `CC(c1ccc(C(F)(F)F)cc1)N1CCC(NC(c2cccnc2)c2ccc(Cl)cc2F)CC1` (centres undefined) the same measures were 75 nM, 19500 nM and above 100 nM.
The like results for `Cc1noc(C)c1C(=O)N1CCC(CN(c2ccc(C(F)(F)F)cc2)c2cccnc2)CC1` were, in that order, 86 nM, 72400 nM and above 100 nM.
Consider `Fc1cc(Cl)cc(N2CCC(NC(c3cccnc3)c3ccc(Cl)cc3F)CC2)c1` (centres undefined), for which the 50% inhibitory concentration (IC50) in the series on Trypanosoma cruzi [1] amounted to 19 nM; in series [2] (IC50) it was 53100 nM. The same compound came in with an IC90 with Trypanosoma cruzi [3] of 50 nM.
In the case of `Clc1ccc(C(NC2CCN(c3ccc(Cl)cn3)CC2)c2cccnc2)cc1` (centres undefined), the IC50 was 35 nM in the series on Trypanosoma cruzi [1] and 66800 nM in series [2] (IC50). In the series with Trypanosoma cruzi [3], this compound gave an IC90 of 76 nM.
The like results for `N#Cc1cnc(N2CCC(NC(c3ccc(Cl)cc3)c3cccnc3)CC2)s1` (centres undefined) were, in that order, 17 nM, 48600 nM and 25 nM.
The like results for `CCn1cc(C(NC2CCN(c3ccc(S(C)(=O)=O)cc3)CC2)c2cccnc2)cn1` (centres undefined) were, in that order, 6040 nM, above 100000 nM and above 10000 nM.
For `CCC(C(C)O)N1CCC(NC(c2ccc(Cl)cc2)c2cccnc2)CC1` (centres undefined) the same measures were 230 nM, above 100000 nM and 600 nM.
Regarding `Fc1cc(Cl)ccc1C(NC1CCN(c2nc3ccccc3s2)CC1)c1cccnc1` (centres undefined), the figures for the IC50 (in the series with Trypanosoma cruzi [1]; in series [2] (IC50)) were 265 nM and above 100000 nM, respectively. This compound also came in with an IC90 in the series with Trypanosoma cruzi [3] of 570 nM.
For `CC(c1ccccc1)N1CCC(NC(c2cccnc2)c2ccc(Cl)cc2F)CC1` (centres undefined) the same measures were 314 nM, 19100 nM and 597 nM.
For `COc1ccc(CN2CCC(NC(c3cccnc3)c3ccc(Cl)cc3F)CC2)cc1` (centres undefined) the same measures were 370 nM, 52000 nM and 4380 nM.
Take `CO/C=C(/C(=O)OC)c1ccccc1Oc1cc(Oc2ccccc2C#N)ncn1` [AZOXYSTROBIN]: the IC50 in the series on Trypanosoma cruzi [1] stood at 3260 nM; in series [2], 50300 nM. Further, in the series on Trypanosoma cruzi [3], the 90% effect level (IC90) was put at 8680 nM.
